Assay results from ChEMBL document CHEMBL1126235, “Benzothiadiazine dioxides: A new class of potent angiotensin-II (AT1) receptor antagonists” (Bioorg Med Chem Lett, 1992).

Key:
[1] = target: T1, Angiotensin II receptor (AT-1) type-1 (Rattus norvegicus, UniProt P29089+P25095); experiment: Binding against Angiotensin II receptor in a radioligand binding assay using [125I]-Sar1-Ile8 angiotensin-II as radioligand in rat adrenal cortical membranes; type: cell membranes
T1 sequence (P29089 whole entry): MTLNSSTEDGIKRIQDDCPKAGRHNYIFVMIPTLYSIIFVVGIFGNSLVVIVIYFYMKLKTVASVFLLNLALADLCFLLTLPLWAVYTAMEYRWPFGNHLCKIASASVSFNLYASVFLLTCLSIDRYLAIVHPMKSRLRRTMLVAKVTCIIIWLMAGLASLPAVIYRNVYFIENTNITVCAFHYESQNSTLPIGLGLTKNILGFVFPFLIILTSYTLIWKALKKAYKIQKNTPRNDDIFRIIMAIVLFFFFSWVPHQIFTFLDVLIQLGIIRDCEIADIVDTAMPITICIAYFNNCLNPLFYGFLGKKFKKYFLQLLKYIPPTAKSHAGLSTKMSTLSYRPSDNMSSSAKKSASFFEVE
T1 sequence (P25095 whole entry): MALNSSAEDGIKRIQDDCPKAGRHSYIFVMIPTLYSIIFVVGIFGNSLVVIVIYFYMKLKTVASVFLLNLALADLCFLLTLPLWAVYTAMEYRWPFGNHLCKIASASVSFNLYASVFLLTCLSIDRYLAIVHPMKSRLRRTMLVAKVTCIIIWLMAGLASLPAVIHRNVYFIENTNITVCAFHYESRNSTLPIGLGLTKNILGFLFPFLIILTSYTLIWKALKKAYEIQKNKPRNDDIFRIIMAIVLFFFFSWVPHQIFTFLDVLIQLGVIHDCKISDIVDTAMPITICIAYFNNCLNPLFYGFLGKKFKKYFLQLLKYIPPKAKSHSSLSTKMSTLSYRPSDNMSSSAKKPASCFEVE

Oryctolagus cuniculus = organism: Oryctolagus cuniculus; experiment: Compound was tested for functional antagonism of angiotensin-II induced contraction in isolated rabbit aorta

Compound | Ki [1] | Kb (Oryctolagus cuniculus)
CCSC1=NS(=O)(=O)c2cc(C)cnc2N1Cc1ccc(-c2ccccc2-c2nn[nH]n2)cc1 | 0.8 nM | 0.6 nM
CCCSC1=NS(=O)(=O)c2cc(C)cnc2N1Cc1ccc(-c2ccccc2-c2nn[nH]n2)cc1 | 0.6 nM | 11 nM
CCCSC1=Nc2ccccc2S(=O)(=O)N1Cc1ccc(-c2ccccc2-c2nn[nH]n2)cc1 | 57 nM | 640 nM
CCCCC1=NS(=O)(=O)c2ccccc2N1Cc1ccc(-c2ccccc2C(=O)O)cc1 | 550 nM | 130 nM
CCCCC1=Nc2ccccc2S(=O)(=O)N1Cc1ccc(-c2ccccc2C(=O)O)cc1 | 230 nM | 160 nM
CCCSC1=NS(=O)(=O)c2ccc(C(=O)O)cc2N1Cc1ccc(-c2ccccc2-c2nn[nH]n2)cc1 | 8.5 nM | 0.08 nM
CCCSC1=NS(=O)(=O)c2ccccc2N1Cc1ccc(-c2ccccc2C(=O)O)cc1 | 180 nM | 20 nM
CCCSC1=Nc2ccccc2S(=O)(=O)N1Cc1ccc(-c2ccccc2C(=O)O)cc1 | 4900 nM | 1200 nM
CCCSC1=NS(=O)(=O)c2ccccc2N1Cc1ccc(-c2ccccc2-c2nn[nH]n2)cc1 | 4.8 nM | 93 nM
CCCCc1nc(Cl)c(CO)n1Cc1ccc(-c2ccccc2-c2nnn[nH]2)cc1 [LOSARTAN] | – | 2.6 nM
